In patent US20190365675A1, “COMPOSITIONS FOR THE PREVENTION AND/OR TREATMENT OF ALCOHOL USE DISORDERS” (SERVICIO ANDALUZ DE SALUD, priority 2016, published 2019):

Legend:
Type in all cases: in vivo, Wistar rats
[1] = tested on: IκBα; assay: IκBα mRNA and protein in frontal cortex cytosol extracts after ethanol intoxication; details: OEA pre-treatment
Method: (§1) The animals were treated with intragastric (i.g.) ethanol 3 times a day using an i.g. cannula (16G needle, Fisher Scientific, Waltham, Mass., USA), following a protocol based on a slightly modified standard 4-day alcohol intoxication pattern (Bernier et al., 2002a, b) (FIG. 1A). The ethanol doses were administered every 8 h for a total time of 4 days. The rats treated with ethanol received an initial loading dose of 5 g/kg of ethanol in a 30% solution (w/v) and then a maximum maintenance dose of 3 g/kg, which were determined based on blood ethanol levels (BEL). This repeated standard alcohol intoxication paradigm kept BEL intoxication relatively constant in a range of sedation/ataxia (190 to 430 mg/dl, Table 3), according to the 6-point alcohol intoxication behavior scale (Majchrowicz, 1975). The mean dose of ethanol/rat/day (days 1-4) was 7.06 g/kg, similar to other studies (Obernier et al., 2002a, b). […] The autoradiograph was quantified by densitometry (NIH ImageJ® software, National Biosciences, Lincoln, Nebr. USA) and expressed as optical density (OD). […] The quantitative changes in mRNA levels were estimated by means of RT-PCR, carried out in the presence of the SYBR green primer using a 20-L reaction in a Rotor-Gene (Corbett Research®, Mortlake, NSW, Australia). […]

[2] = tested on: control animals; assay: OEA time curve in control animals; details: time curve 3 h, 6 h, 24 h; some trends at 3 h (TLR4, p65)
Method: A time curve (n=18) was also established with OEA (3 h, 6 h, and 24 h) to rule out any effect in the control animals.

[3] = tested on: TLR4; assay: TLR4 mRNA and protein expression in frontal cortex after ethanol intoxication; details: 2-4 h after last ethanol, OEA pre-treatment
Method: as §1

Which “Ethanol-induced IκBα protein expression” value ([1]; frontal cortex cytosol extracts) does the source give for `CCCCCCCC/C=C\CCCCCCCC(=O)NCCO` [OEA, oleoylethanolamide] here?
Its value is “did not counteract”.

And the “Ethanol-induced increase in IκBα mRNA levels” value ([1]; frontal cortex)?
The value was “did not counteract”.

And the “Effect of OEA on the parameters in control animals” value [2]?
The value was “did not significantly modify”.

What about the “Ethanol-induced TLR4 protein expression” value [3] of the same compound?
The value was “reduce”.

What about the “Ethanol-induced overexpression of TLR-4 mRNA” value [3] of the same compound?
Its value is “reduce”.
